The source of these data is US12134769B2, “MicroRNA-198 as a tumor suppressor in ovarian cancer” (Baylor College of Medicine, priority 2011, dated 2024).

One data set relates to PBX-1 3′UTR. The data set is described as follows: Dual-luciferase reporter assay, PBX-1 3′UTR. It counts as cell-based. The conditions noted are these: following miR-198 transfection/overexpression; firefly/Renilla ratio, 24 h. On the procedure: A luciferase construct containing the first 491 bases of the PBX-1 3′UTR was purchased from Switchgear Genomics. Two mutant PBX-1 3′UTR reporters were subsequently generated using the Stratagene Quickchange Site-directed Mutagenesis kit, with the WT miR-198 binding site seed region either altered from TCTGGA to AAGCTT (a HindIII restriction site) or deleted entirely (FIG. 10).
(§1) Dual luciferase assays were performed according to the manufacturer's instruction. Luciferase expression analysis was performed at 24 h using the Dual-luciferase kit (Promega) and Sirius Luminometer (Berthold Detection System). Results are presented as the ratio of firefly to Renilla luciferase activities, normalized to controls.
The PBX-1 3′UTR region was cloned into the pSGG-3UTR vector (based on pGL4.11 vector with a MCS added after luciferase) after the reporter gene, firefly luciferase, whose expression is regulated by the SV40 promoter. A separate reporter for Renilla luciferase under the control of the CMV promoter was utilized to normalize for transfection efficiency. The identity of the 3′UTR sequence including the predicted miR-198 binding site was confirmed using the following primers: Fwd: […] [SEQ ID NO. 111], Rev: […]. [SEQ ID NO. 112]

The test system of a further data set is VCP 3′UTR. The data set is described as follows: Dual-luciferase reporter assay, VCP 3′UTR. It is filed as cell-based. The conditions noted are these: following miR-198 overexpression; firefly/Renilla ratio, 24 h.
Excerpt: (§2) For MSLN, six constructs were generated: 400 or 600 bp segments containing the WT sequence or specific 3-nucleotide mutations in the seed region of each miR-198 binding site were synthesized by GenScript and subcloned into the pEZX-MT01 3′UTR construct from Genecopoeia at Xba1 and BamH1 restriction sites such that they were inserted after the luciferase gene (FIG. 10). The same process was used for the VCP reporter constructs containing the full-length VCP 3′UTR (FIG. 10).
as §1

A further data set relates to MSLN CDS. The data set is described as follows: Dual-luciferase reporter assay, MSLN CDS constructs. It counts as cell-based, human. As to conditions: in the presence of miR-198.
Excerpt: as §2, §1

The test system of data set [1] is AsPC1 cells. The data set is described as follows: Migration, modified Boyden chamber assay. It is filed as cell-based, human. As to conditions: stable miR-198 overexpression in AsPC1 cells, FIG. 14D. On the procedure:
(§3) Cell migration was determined with a modified Boyden chamber assay as described previously (Li et al., 2008). For invasion assays, Matrigel basement membrane matrix (BD Biosciences) was used by adding 100 ul of 1 mg/ml Matrigel to the migration chamber inserts prior to plating of the cells (Li et al., 2008, Bharadwaj).

Data set [2] concerns MIA-MSLN cells. The data set can be described thus: Migration, modified Boyden chamber assay. It counts as cell-based, human. Here is the method:
as §3

Data set [3] has as its system AsPC1 cells. The data set is described as follows: Invasion assay across Matrigel. It counts as cell-based, human. The conditions noted are these: AsPC1 cells following miR-198 overexpression. Here is the method: as §3
(§4) An invasion assay was performed as described for the migration assay. For invasion, Matrigel basement membrane matrix (BD Biosciences) was used by adding 100 μl of 1 mg/ml Matrigel to the migration chamber inserts prior to plating of the cells.

The test system of data set [4] is MIA-MSLN cells. The data set can be described thus: Invasion assay across Matrigel. It counts as cell-based, human. As to conditions: 36 h after miR-198 precursor transfection. On the procedure:
as §3, §4

The subject of data set [5] is MIA-MSLN cells. The data set can be described thus: Apoptosis assay (TUNEL, caspase 3 western) after TNF-α. It counts as cell-based, human. Here is the method:
(§5) Apoptosis induction was determined using western blotting for Caspase 3 cleavage and confirmed by labeling DNA breaks using a terminal deoxynucleotidyltransferase dUTP nick end labeling (TUNEL) assay with the APO-DIRECT Kit (BD Biosciences) following 96 h of treatment (24 h serum starvation followed by 72 h of treatment with 20 ng/ml of TNF-α). Briefly, cells were plated in either 10% FBS media or serum-starved for 96 h, at which time 1×10^6 cells were harvested using trypsin-EDTA. After centrifugation, the pellets were washed twice with PBS, then resuspended in 1% paraformaldehyde in PBS and incubated on ice for 45 minutes. After several washes, the cell pellet again was resuspended in PBS/ethanol, incubated on ice for 30 minutes, and stored at −20° C. Cell samples were then pelleted, washed, and resuspended in 50 μL of DNA labeling solution containing a reaction buffer, terminal deoxynucleotidyl transferase enzyme, FITC-labeled deoxyuridine triphosphate nucleotides, and distilled water. After a 60-minute incubation at 37° C., cells were again washed, pelleted, and resuspended in 500 μl of propidium iodine/RNase staining buffer. Samples were then analyzed by flow cytometry (fluorescence-activated cell sorting) using a FACSCalibur (Becton Dickinson, Franklin Lakes, NJ). Data was further analyzed using the software FLOWJOW ver. 6.1.1 (Tree Star Inc.).

The subject of data set [6] is AsPC1 cells. The data set can be described thus: Apoptosis assay (TUNEL) after TNF-α. The conditions noted are these: AsPC1-miR-198 cells, TUNEL after TNF-α treatment. It is filed as cell-based, human. On the procedure:
as §5

The test system of a further data set is MIA-V cells. The data set can be described thus: Apoptosis assay (TUNEL) after TNF-α. It counts as cell-based, human. The conditions noted are these: TUNEL after TNF-α treatment. Here is the method:
as §5

Data set [7] deals with MIA-MSLN cells. The data set is described as follows: Orthotopic pancreatic cancer mouse model. It is filed as in vivo, nude mice. Here is the method:
All animal procedures were conducted under the guidelines approved by the Institutional Animal Care and Use Committee (IACUC). Cells (3×10^6) were inoculated into the right flank (s.c. model) or into the pancreas (orthotopic model) of 5 to 6-week-old male nude mice (NCI-Charles River) as previously described (Li et al., 2007). Tumor size was measured using a digital caliper and tumor volume was determined with the following formula: tumor volume (mm^3)=[length (mm)]×[width (mm)]2×0.52. For the orthotopic model, after 4 weeks all surviving mice were euthanized and evaluated macroscopically for the presence of orthotopic tumor and metastases in the abdominal cavity. Tumor spread was further visualized using a fluorescent filter to view GFP expression. The tumor nodules were explanted, counted, and weighed. Tumor tissues were stored in RNAse Later solution (Ambion) in −80° for subsequent RNA/miRNA isolation and analysis.

Data set [8] has as its system AsPC1 cells. The data set can be described thus: Monolayer wound healing assay. It is filed as cell-based, human. As to conditions: miR-198 overexpressed, all serum conditions tested. An excerpt:
(§6) For wound healing assay, wounds were created in confluent monolayer of cells with a sterile pipette tip in either 0%, 0.2%, 2%, or 5% FBS media, and wound healing was observed within the scrape line at different time points; representative fields for each cell line were photographed (Li et al., 2008, Bharadwaj).

The subject of data set [9] is MIA-MSLN cells. The data set can be described thus: Monolayer wound healing assay. As to conditions: miR-198 overexpressed, all serum conditions tested. It is filed as cell-based, human.
Excerpt: as §6

As to “miR-198: microRNA-198, SEQ ID NO: 1 gguccagaggggagauagg; used as transfected precursors (Ambion) or Lenti-miR stable overexpression (GGUCCAGAGGGGAGAUAGG; listed as RNA, chemistry not given here; listed as Homo sapiens)”, in the data set with PBX-1 3′UTR, the “reduction in PBX-1 3′UTR luciferase expression” value amounted to 65%. For the same substance, in the data set on VCP 3′UTR, the “decrease in VCP 3′UTR luciferase activity” value is listed as roughly 70%. Also, the “decrease in firefly luciferase expression, MSLN CDS site 2 WT construct” value in the data set with MSLN CDS is reported as “almost completely”. In addition, the “decrease in firefly luciferase expression, MSLN CDS site 3 WT construct” value in the data set with MSLN CDS is roughly 70%. Further, the “decrease in firefly luciferase expression, MSLN CDS site 1 construct” value in the data set on MSLN CDS (not statistically significant) is listed as “slight reduction”. The migration reduced is 33% in the data set on AsPC1 cells [1]; greater than 50% in the data set on AsPC1 cells [1] (listed as MiR-198); 44% in the data set on MIA-MSLN cells [2] (36 h after transient miR-198 transfection); roughly 40% in the data set on MIA-MSLN cells [2] (stable miR-198 overexpression, after 48 h). Also, in the data set with AsPC1 cells [3], the invasion decreased is given as roughly 50%. Moreover, the invasion reduced with MIA-MSLN cells [4] was 24%. Also, the “increase in number of cells undergoing apoptosis over controls” value in the data set on MIA-MSLN cells [5] (MIA-MSLN-miR-198 cells, TUNEL after TNF-α treatment) is greater than 60%; with AsPC1 cells [6] it was greater than 90%. The “caspase 3 cleavage” value in the data set with MIA-MSLN cells [5] (overexpression of miR-198 in MIA-MSLN cells, western blot) is given as “results in caspase 3 cleavage”. For the same substance, the apoptotic cells in the data set on MIA-V cells is listed as roughly 75%. Further, in the data set on MIA-MSLN cells [7] (orthotopic MIA-MSLN-miR-198 cells, after 4 weeks), the “average primary tumor weight” value is 0.06 g. The metastases entry in the data set on MIA-MSLN cells [7] (orthotopic MIA-MSLN-miR-198 injected mice, 8 mice) is recorded as “Four of the eight mice had no metastases”. Moreover, in the data set with MIA-MSLN cells [7] (orthotopic, mice injected with high miR-198 cells), the “jaundice, weight loss, and abdominal ascitic fluid” value is on record as “none of the mice injected with high miR-198 cells had these symptoms”. Also, the wound closure rate entry in the data set with AsPC1 cells [8] and in the data set with MIA-MSLN cells [9] was “reduced wound closure rate” in each case.
